# From patent publication US7196105B2, “Treatment of human multiple myeloma by curcumin” (Research Development Foundation, priority 2002, dated 2007)
# Key:
# IκB kinase = target: T1, IκB kinase (Homo sapiens, UniProt O14920+O15111); assay: In vitro kinase assay: IKK immunoprecipitated from untreated U266 cells, then treated with curcumin; type: biochemical; conditions: curcumin 30 min, GST-IκBα substrate
# T1 construct: 200 μg cytoplasmic extracts were immunoprecipitated with 1 μg of anti-IKKa and IKKb antibodies each; endogenous in cells; host or cells: U266 human multiple myeloma cells (cytoplasmic extract, immunoprecipitate on protein A/G-Sepharose)
# T1 sequence (O15111 whole entry): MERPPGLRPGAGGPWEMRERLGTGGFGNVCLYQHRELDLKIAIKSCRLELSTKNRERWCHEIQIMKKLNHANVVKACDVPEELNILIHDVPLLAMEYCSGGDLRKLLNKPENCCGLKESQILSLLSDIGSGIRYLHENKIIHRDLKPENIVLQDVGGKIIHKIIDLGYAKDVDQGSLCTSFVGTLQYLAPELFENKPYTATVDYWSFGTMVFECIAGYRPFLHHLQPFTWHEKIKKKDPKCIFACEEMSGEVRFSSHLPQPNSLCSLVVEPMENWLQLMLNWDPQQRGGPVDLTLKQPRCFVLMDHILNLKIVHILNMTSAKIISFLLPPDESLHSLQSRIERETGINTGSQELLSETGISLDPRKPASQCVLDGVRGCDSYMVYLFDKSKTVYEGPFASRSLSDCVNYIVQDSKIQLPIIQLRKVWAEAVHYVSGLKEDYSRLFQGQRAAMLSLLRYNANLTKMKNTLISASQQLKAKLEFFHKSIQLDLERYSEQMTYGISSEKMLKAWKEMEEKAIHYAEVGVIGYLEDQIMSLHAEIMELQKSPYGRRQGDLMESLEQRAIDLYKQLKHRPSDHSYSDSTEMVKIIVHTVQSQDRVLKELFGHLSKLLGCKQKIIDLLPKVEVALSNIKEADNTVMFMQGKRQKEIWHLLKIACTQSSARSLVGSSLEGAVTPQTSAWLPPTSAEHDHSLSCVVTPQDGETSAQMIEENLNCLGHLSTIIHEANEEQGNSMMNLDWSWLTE
# T1 sequence (O14920 whole entry): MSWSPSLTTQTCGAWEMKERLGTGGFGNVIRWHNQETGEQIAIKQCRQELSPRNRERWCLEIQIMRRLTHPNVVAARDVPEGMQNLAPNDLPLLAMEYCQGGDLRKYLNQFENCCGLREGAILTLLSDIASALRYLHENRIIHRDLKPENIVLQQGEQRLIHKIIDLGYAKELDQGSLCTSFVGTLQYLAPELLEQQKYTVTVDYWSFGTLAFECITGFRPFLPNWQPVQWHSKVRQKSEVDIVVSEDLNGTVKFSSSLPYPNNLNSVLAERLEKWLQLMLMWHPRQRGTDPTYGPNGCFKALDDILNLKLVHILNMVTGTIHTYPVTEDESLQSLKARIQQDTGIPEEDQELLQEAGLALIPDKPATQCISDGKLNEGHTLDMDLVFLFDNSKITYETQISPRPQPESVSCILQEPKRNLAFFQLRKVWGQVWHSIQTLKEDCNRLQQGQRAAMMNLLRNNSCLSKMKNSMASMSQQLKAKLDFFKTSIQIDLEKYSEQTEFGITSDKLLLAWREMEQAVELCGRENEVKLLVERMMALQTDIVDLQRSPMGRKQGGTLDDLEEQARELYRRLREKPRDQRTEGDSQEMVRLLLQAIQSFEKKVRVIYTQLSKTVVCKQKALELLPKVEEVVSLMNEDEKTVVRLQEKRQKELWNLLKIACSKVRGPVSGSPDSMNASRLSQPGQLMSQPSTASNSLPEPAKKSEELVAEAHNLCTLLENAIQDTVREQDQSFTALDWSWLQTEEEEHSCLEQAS
# T1 sequence (Q9Y6K9 whole entry partner): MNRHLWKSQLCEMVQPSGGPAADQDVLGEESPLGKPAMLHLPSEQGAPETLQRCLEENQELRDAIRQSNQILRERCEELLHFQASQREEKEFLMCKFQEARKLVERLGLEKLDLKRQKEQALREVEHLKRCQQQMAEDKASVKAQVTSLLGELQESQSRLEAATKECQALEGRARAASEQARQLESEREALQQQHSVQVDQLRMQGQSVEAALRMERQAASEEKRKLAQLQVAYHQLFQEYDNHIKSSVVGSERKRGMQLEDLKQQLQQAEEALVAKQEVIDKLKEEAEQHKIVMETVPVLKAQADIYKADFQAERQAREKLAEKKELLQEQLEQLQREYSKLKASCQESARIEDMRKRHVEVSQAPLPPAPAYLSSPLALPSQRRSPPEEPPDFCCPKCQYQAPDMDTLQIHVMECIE
# Procedure: Five million U266 cells/2.5 ml were treated with curcumin (50 μM) for the indicated times and cytoplasmic extracts were prepared. FIG. 3A: Level of phosphorylated IκBα determined by Western blotting. FIG. 3B: Immunoprecipitated IκB kinase and kinase assay of IκB kinase activity (upper panel) or Western blotting for the analysis of total IKKα and IKKβ proteins in cytoplasmic extracts (lower panel). FIG. 3C: IκB kinase was immunoprecipitated and kinase assay was performed in the absence or presence of the indicated concentrations of curcumin (upper panel). Lower panel indicates the amount of GST-IκBα protein stained with Coomassie Blue in each well in the same dried gel.
# The IkB kinase assay was performed with a modified method as described earlier (Manna et al., 2000). Briefly, 200 μg cytoplasmic extracts were immunoprecipitated with 1 μg of anti-IKKa and IKKb antibodies each, and the immune complexes so formed were precipitated with 0.01 ml of protein A/G-Sepharose beads for 2 hour. The beads were washed first with lysis buffer and then with kinase assay buffer (50 mM HEPES pH 7.4, 20 mM MgCl2, and 2 mM DTT). The immune complex was then assayed for kinase activity using kinase assay buffer containing […] [g-P^32]ATP, 10 μM unlabeled ATP, and 2 μg/sample glutathione S-transferase-IkBa (1–54). […] Radioactive bands of the dried gel were visualized and quantitated by PhosphorImager. […]
# Bcl-2 = assay: Western blot for NF-κB-regulated gene product Bcl-2 in U266 cells; type: cell-based, human; conditions: curcumin 50 μM
# Procedure: (§1) Sixty micrograms of cytoplasmic extracts were resolved on 10% SDS-PAGE gel, electrotransferred on a nitrocellulose membrane, and probed for the following: IκBα (FIG. 4A); Bcl-2 (FIG. 4B); Bcl-xL (FIG. 4C) and cyclin D1 (FIG. 4D). The same blots were stripped and reprobed with anti-β-actin antibody to show equal protein loading (lower panel in each figure). FIG. 4E: […] U266, MM.1 or RPMI 8226 cells (1×10^7) were treated with curcumin ([…]) in 5 ml of medium for the indicated times. Supernatants were harvested and concentrated approximately 20×, and IL-6 was quantitated by an IL-6 ELISA kit. Values shown were normalized to 1 ml of un-concentrated supernatants. Thirty to fifty micrograms of cytoplasmic protein extracts prepared as described (Chaturvedi et al., 2000) were resolved on 10% SDS-PAGE gel. After electrophoresis, the proteins were electrotransferred to a nitrocellulose membrane, blocked with 5% nonfat milk, and probed with antibodies against either IkBa, phospho-IkBa, Bcl-2, Bcl-xL, or cyclin D1 (1:3000) for 1 h. Thereafter, the blot was washed, exposed to HRP-conjugated secondary antibodies for 1 h, and finally detected by chemiluminescence (ECL, Amersham Pharmacia Biotech., Arlington Heights, Ill.).
# Bcl-xL = assay: Western blot for NF-κB-regulated gene product Bcl-xL in U266 cells; type: cell-based, human; conditions: curcumin 50 μM, time course
# Procedure: as §1
# caspase-7 = assay: Western blot for procaspase-7 (apoptosis); type: cell-based, human; conditions: U266, curcumin 50 μM, time course
# Procedure: The cells were washed and total proteins were extracted by lysing the cells. Sixty microgram of extracts were resolved on 10% SDS-PAGE gel, electrotransferred to a nitrocellulose membrane, and probed with anti-procaspase-9 (FIG. 6C), anti-procaspase-7 (FIG. 6D), anti-PARP (FIG. 6E, upper panel) and anti-cleaved PARP (FIG. 6E, lower penal). […] Lysates were then spun at 14000 rpm for 10 min to remove insoluble material, resolved on 7.5% gel and probed with PARP antibodies. PARP was cleaved from the 116-kDa intact protein into 85-kDa and 40-kDa peptide products. To detect cleavage products of procaspase 7 and procaspase 9, whole cell extracts were resolved on 10% gel and probed with appropriate antibodies.
# U266 cells = assay: Flow cytometric cell cycle analysis (propidium iodide); type: cell-based, human; conditions: U266, 10 μM curcumin, 24 h
# Procedure: U266 cells (2×10^6 cells/ml) were incubated in the absence or presence of curcumin (10 μM) for the indicated times. The cells were then washed, fixed, stained with propidium iodide, and analyzed for DNA content by flow cytometry. […] After incubation for overnight at −20° C., cells were washed with PBS prior to staining with propidium iodide (PI), and then suspended in staining buffer (PI, […]; Tween-20, 0.5%; RNase, 0.1% in PBS). The cells were analyzed using a FACS Vantage flow cytometer that uses CellQuest acquisition and analysis programs (Becton Dickinson, San Jose, Calif.).
smiles,measurement,setting,value
"COc1cc(/C=C/C(=O)CC(=O)/C=C/c2ccc(O)c(OC)c2)ccc1O [curcumin, diferuloylmethane]",direct inhibition of IκB kinase activity,IκB kinase,inhibited IκB kinase activity directly in a dose-dependent manner
same,time to lowest level (complete decline) of Bcl-2,Bcl-2,≤ 8 h
same,Bcl-xL protein level,Bcl-xL,only a partial decline
same,activation of caspase-7 (disappearance of 35-kDa band),caspase-7,time-dependent activation
same,percentage of cells in the S phase,U266 cells; from 22% without treatment,9%
same,percentage of cells in the G1 phase,U266 cells; from 52% without treatment,70%
